In patent US20080267861A1, “Myocardial Perfusion Imaging” (CV THERAPEUTICS, INC., priority 2007, published 2008):
One block for each compound: values may come before it.

What was measured:
[1] = system: patients requiring pharmacologic MPI; assay: SPECT myocardial perfusion imaging: heart-to-background ratios, image quality, perfusion defects; type: in vivo, human; settings: for heart-to-gut ratio, mean (SD) / heart-to-liver ratio, mean (SD) / heart-to-liver+gut ratio, mean (SD): 39 patients undergoing both scans, 99mTc-Sestamibi
Procedure: (§1) In this multicenter study, subjects requiring pharmacologic MPI based on clinical criteria received adenosine infusion (Astellas Pharma, Inc.), 140 mcg/kg/min over 6 min in the supine position (AdenoSup), following enrollment and were then randomized (2:1) in a double-blind manner to a novel protocol (RegEx) consisting of 4 min of sub-maximal exercise (1.7 mph at 0% grade) with bolus intravenous injection of 400 mcg Regadenoson at 1.5 min and ^99mTechnetium-Sestamibi at 2 min or matching placebos (PlcEx).
Prior to randomization, patients were stratified based on the presence of reversible perfusion defects, defined as a two or more segments with a stress score >rest score and a stress score >2 on a 5-category scale, as interpreted by a board-certified nuclear cardiologist at each site. The 5-category scale, used both for stratifying patients and for evaluation of perfusion defects on study, was as follows: 0=normal; 1=mild reduction in tracer uptake, not definitely abnormal; 2=moderate reduction in uptake, definitely abnormal; 3=severe reduction in uptake; 4=absent uptake.
(§2) The primary objective was to assess the overall safety of Regadenoson in patients undergoing low-level stress by comparing hemodynamic, cardiac rhythm and adverse effects of the 3 protocols. In addition, patient acceptance was determined by comparing patient comfort and test protocol preference using questionnaires. Three blinded expert readers independently interpreted randomly presented perfusion scans at a nuclear core lab (Services NucMed, Montreal, Canada). Image quality was compared between AdenoSup and RegEx by computation of heart-to-liver and heart-to-gut ratios and the readers' visual assessment of overall image quality and image quality with respect to subdiaphragmatic interference specifically. A 17-segment MPI model was used by the core lab readers, to compare the extent of the perfusion defect between RegEx and AdenoSup quantitatively and also qualitatively with side-by-side visual comparison. Patients were required to abstain from methylxanthine-containing foods and beverages for 12 hours prior to receiving study drug and adenosine. The protocol was approved by an institutional review board and all patients provided written informed consent.
Nuclear imaging was performed using either a dual isotope protocol or a two-day ^99mTechnetium-Sestainibi protocol at the investigators' discretion. However, men with body weight >220 pounds and body mass index >30 kg/m2 and women with body weight >200 pounds and body mass index >30 kg/m2 were to undergo the two day protocol. The single photon emission computed tomography (SPECT) imaging was standardized for image acquisition and transmittal in accordance with the American Society of Nuclear Cardiology guidelines. The protocol required an extra ˜8 mSv radiation to the patients in the study arm, and none to the patients in the control (placebo exercise) arm.
The dual isotope protocol was performed over 2 separate days. On the first day, patients were to have a rest scan with ^201Thallium followed by a ^99mTechnetium-Sestamibi adenosine-supine MPI; on a subsequent day, patients underwent a ^99mTechnetium-Sestamibi study drug (i.e., regadenoson or placebo) sub-maximal treadmill exercise MPI.
The multi-day ^99mTechnetium-Sestamibi was performed over 3 days. On the first day, patients were to have a ^99mTechnetium-Sestamibi adenosine supine MPI or ^99mTechnetium-Sestamibi rest scan. […] The second and third days were not necessarily consecutive to the first day.
The stress MPI scans were to be performed 60±10 minutes after the start of adenosine or study drug.
Changes in blood pressure, heart rate, and ECG intervals were computed over time and compared (Regadenoson vs. placebo) using repeated measures, mixed-model ANOVA. The incidence of symptomatic hypotension, systolic blood pressure decreases of >20 mm Hg, ECG abnormalities, and severe or related adverse events was compared using Fisher's exact test. […]

[2] = system: patients requiring pharmacologic MPI; assay: Adverse events during MPI protocols; type: in vivo, human; settings: for frequency of dyspnea: 39 crossover patients
Procedure: as §1, §2
(§3) Changes in blood pressure, heart rate, and ECG intervals were computed over time and compared (Regadenoson vs. placebo) using repeated measures, mixed-model ANOVA. The incidence of symptomatic hypotension, systolic blood pressure decreases of >20 mm Hg, ECG abnormalities, and severe or related adverse events was compared using Fisher's exact test. The quality of nuclear MPI scans following regadenoson and low-level exercise was compared to adenosine-supine MPI scans of the same subject using the sign test. Radiotracer target-to-background ratios were computed and compared between the two imaging regimens using the Wilcoxon signed ranks test. Semi-quantitative scoring of perfusion defects (Summed Stress Score (SSS), Summed Difference Score (SDS), etc.) was conducted using a 17-segment polar map and the quality of agreement between the two imaging regimens was assessed using […]

[3] = system: patients requiring pharmacologic MPI; assay: Hemodynamic, cardiac rhythm and ECG effects of MPI protocols; type: in vivo, human; settings: for effects on ECG intervals: AdenoSup, RegEx and PlcEx compared; for patients with arrhythmias following both AdenoSup and RegEx / patients with arrhythmias following this protocol only: adverse events or ECG findings; for occurrences of 2nd degree or higher AV block: in vivo
Procedure: as §1, §2, §3

[4] = system: patients requiring pharmacologic MPI; assay: Patient comfort and test protocol preference questionnaires; type: in vivo, human; settings: for tolerability: 400 mcg bolus during low-level exercise
Procedure: as §2
Cohen's kappa for the categories 0-3, 4-7, 8-11, and >12 (SSS) and 0-6, 7-13, and >14 (SDS). The number of segments with reversible perfusion defects was defined as the median number across the three readers. Subject comfort and tolerability were assessed using a 4-point scale and the regimens compared using a Cochran-Mantel-Haenszel test of equality of mean scores. Data are expressed as mean (SD) unless otherwise specified. Statistical analyses were conducted using SAS version 9.1. Statistical significance was defined as a p-value of <0.05.

[5] = relative to adenosine; cited from earlier work
[6] = AdenoSup, later randomized to RegEx (n = 39)

Compound: Nc1ncnc2c1ncn2[C@@H]1O[C@H](CO)[C@@H](O)[C@H]1O [Adenosine, adenosine, reference compound]
- heart-to-gut ratio, mean (SD) [1]: 0.97 (0.34)
- heart-to-liver ratio, mean (SD) [1]: 0.65 (0.26)
- heart-to-liver+gut ratio, mean (SD) [1]: 0.72 (0.18)
- patients in whom reversible perfusion defects were detected ([1]; of 39 patients): 51.3%
- patients in whom reversible perfusion defects were detected ([1]; out of 39 patients): 20
- frequency of dyspnea [2]: 41%
- patients with at least one adverse event ([2]; 62 patients dosed): 95%
- Adverse event: Stomach Discomfort, patients ([2]; AdenoSup, later randomized to PlcEx (n = 21)): 0
- Adverse event: Dizziness, patients [2, 6]: 0
- Adverse event: Pain in Jaw, patients [2, 6]: 0
- patients with severe adverse events ([2]; AdenoSup: of 60 patients): 4
- patients with protocol-defined symptomatic hypotension ([2]; in vivo): One
- patients with severe adverse events ([2]; of 60 patients): 6.7%
- effects on ECG intervals [3]: similar
- patients with arrhythmias following both AdenoSup and RegEx [3]: 2
- patients with arrhythmias following this protocol only [3]: 3
- occurrences of 2nd degree or higher AV block [3]: one
- peak heart rate, increase from resting baseline ([3]; mean (SE)): +21.0 (SE 2.5) bpm

- patients reporting being very uncomfortable or extremely uncomfortable ([4]; 4-point scale): No patients
- patients reporting the test as "a little uncomfortable" ([4]; 4-point scale): 41%
- patients reporting the test as "comfortable" ([4]; 4-point scale): 59%
Compound: CNC(=O)c1cnn(-c2nc(N)c3ncn([C@@H]4O[C@H](CO)[C@@H](O)[C@H]4O)c3n2)c1 [Regadenoson, (1-{9-[(4S,2R,3R,5R)-3,4-dihydroxy-5-(hydroxymethyl)oxolan-2-yl]-6-aminopurin-2-yl}pyrazol-4-yl)-N-methylcarboxamide]
- heart-to-gut ratio, mean (SD) [1]: 1.1 (0.36)
- heart-to-liver ratio, mean (SD) [1]: 0.85 (0.34)
- heart-to-liver+gut ratio, mean (SD) [1]: 0.93 (0.26)
- image quality with respect to subdiaphragmatic interference, side-by-side RegEx vs AdenoSup ([1]; 39 patients, blinded readers): significantly better
- overall image quality, side-by-side comparison RegEx vs AdenoSup ([1]; 39 patients, blinded readers, listed as RegEx): significantly better overall image quality
- patients in whom reversible perfusion defects were detected ([1]; of 39 patients): 64.1%
- patients in whom reversible perfusion defects were detected ([1]; out of 39 patients): 25
- tolerability [4]: feasible and well tolerated
- tolerability ([4]; listed as RegEx): well tolerated
- frequency of dyspnea [2]: 54%
- patients with severe adverse events ([2]; AdenoSup: of 60 patients): no patient
- Adverse event: Chest Pain, patients ([2]; RegEx (n = 39)): 0
- Adverse event: Pain in Jaw, patients ([2]; RegEx (n = 39)): 0
- Adverse event: Throat tightness, patients ([2]; RegEx (n = 39)): 0
- patients with at least one adverse event ([2]; n=39): 77%
- heart rate over the pre-exercise baseline ([3]; 24 minutes following start of exercise, mean (SE)): +4.6 (SE 1.5) bpm
- effects on ECG intervals [3]: similar
- peak heart rate greater than following AdenoSup ([3]; RegEx vs AdenoSup): 21 bpm
- peak heart rate greater than following PlcEx ([3]; RegEx vs PlcEx): 13 bpm
- systolic blood pressure analyses (change in mean SBP, nadir SBP, decline >20 mm Hg) ([3]; RegEx vs PlcEx and vs AdenoSup): no important differences
- patients with arrhythmias following both AdenoSup and RegEx [3]: 2
- patients with arrhythmias following this protocol only [3]: 1
- heart rate higher than the pre-exercise baseline ([3]; by 24 minutes following the study drug bolus): < 5 bpm
- occurrences of 2nd degree or higher AV block [3]: No occurrences
- peak heart rate, increase from resting baseline ([3]; mean (SE)): 41.9 (SE 2.7) bpm
- increase of mean maximum heart rate over sub-maximal exercise with placebo ([3]; with sub-maximal exercise): 16.5 beats per minute
- mean maximum heart rate increase ([3]; with sub-maximal exercise (Discussion)): +40.2 (1.5) bpm

Compound: OCCN(CCO)c1nc(N2CCCCC2)c2nc(N(CCO)CCO)nc(N3CCCCC3)c2n1 [dipyridamole]
- half-life [5]: longer than that of adenosine
